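Briefly, cells in 96-well plates were exposed to five compound concentrations for 48 h, and endpoints were estimated by linear interpolation. GI50 = concentration required for 50% inhibition of growth.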 Active and inactive are the calls of the source. Rule as the data show it: active = GI50 up to about 1.1 µM and inactive = higher.
Legend:
Test in all cases: NCI-60 cell line screen, 48 h
[1] = tested on: SNB-19
[2] = tested on: COLO 205
[3] = tested on: EKVX
[4] = tested on: DU-145
[5] = tested on: TK-10
[6] = tested on: HCC 2998
[7] = tested on: HL-60
[8] = tested on: A498
[9] = tested on: CCRF-CEM
[10] = tested on: NCI-H522
[11] = tested on: UACC-62
[12] = tested on: SK-MEL-5
[13] = tested on: KM12
[14] = tested on: NCI-H460
[15] = tested on: HCT-116
[16] = tested on: CAKI-1
[17] = tested on: SR
[18] = tested on: PC-3
[19] = tested on: OVCAR-4
[20] = tested on: UACC-257

## COC1=C2CC(C)CC(OC)C(O)C(C)/C=C(\C)C(OC(N)=O)C(OC)/C=C\C=C(/C)C(=O)NC(=C(/C=N/N3CCCCC3)C1=O)C2=O (stereo not given)
[1]
  GI50: 16.1 µM (inactive)
[2]
  GI50: 2.93 µM (inactive)
[3]
  GI50: 8.43 µM (inactive)
[4]
  GI50: 18.3 µM (inactive)
[5]
  GI50: 27.9 µM (inactive)
[6]
  GI50: 6.7 µM (inactive)
[7]
  GI50: 1.95 µM (inactive)
[8]
  GI50: 23.9 µM (inactive)
[9]
  GI50: 2.55 µM (inactive)
[10]
  GI50: 2.55 µM (inactive)
[11]
  GI50: 18.6 µM (inactive)
[12]
  GI50: 15.8 µM (inactive)
[13]
  GI50: 11.6 µM (inactive)
[14]
  GI50: 19.5 µM (inactive)
[15]
  GI50: 3.25 µM (inactive)
[16]
  GI50: 15.7 µM (inactive)
[17]
  GI50: 2.59 µM (inactive)
[18]
  GI50: 15.3 µM (inactive)
[19]
  GI50: 5.26 µM (inactive)
[20]
  GI50: 11.9 µM (inactive)

## CC1=NN(C(=O)c2ccccc2O)C(=O)/C1=C/c1ccc([N+](=O)[O-])cc1
[1]
  GI50: 0.0782 µM (active)
[2]
  GI50: 16.5 µM (inactive)
[3]
  GI50: 1.2 µM (inactive)
[4]
  GI50: 0.481 µM (active)
[5]
  GI50: > 24.2 µM (inactive)
[6]
  GI50: 1.85 µM (inactive)
[7]
  GI50: 0.508 µM (active)
[8]
  GI50: 0.0419 µM (active)
[9]
  GI50: 0.407 µM (active)
[10]
  GI50: 0.615 µM (active)
[11]
  GI50: 0.0603 µM (active)
[12]
  GI50: 0.239 µM (active)
[13]
  GI50: 0.161 µM (active)
[14]
  GI50: 0.114 µM (active)
[15]
  GI50: 0.116 µM (active)
[16]
  GI50: 0.455 µM (active)
[17]
  GI50: 0.473 µM (active)
[18]
  GI50: 1.36 µM (inactive)
[19]
  GI50: 0.482 µM (active)
[20]
  GI50: 1.91 µM (inactive)

## CC(C)/C(Cl)=N/OC(=O)Nc1ccc(OC(F)(F)F)cc1
[1]
  GI50: 17.7 µM (inactive)
[2]
  GI50: 1.84 µM (inactive)
[3]
  GI50: 8.17 µM (inactive)
[4]
  GI50: 17.2 µM (inactive)
[5]
  GI50: 15.9 µM (inactive)
[6]
  GI50: 16.7 µM (inactive)
[7]
  GI50: 1.97 µM (inactive)
[8]
  GI50: 18.6 µM (inactive)
[9]
  GI50: 1.27 µM (inactive)
[10]
  GI50: 1.47 µM (inactive)
[11]
  GI50: 16.3 µM (inactive)
[12]
  GI50: 7.14 µM (inactive)
[13]
  GI50: 16.6 µM (inactive)
[14]
  GI50: 16.6 µM (inactive)
[15]
  GI50: 6.65 µM (inactive)
[16]
  GI50: 5.2 µM (inactive)
[17]
  GI50: 1.94 µM (inactive)
[18]
  GI50: 16.1 µM (inactive)
[19]
  GI50: 4.19 µM (inactive)
[20]
  GI50: 13.7 µM (inactive)

## O=C1C(c2ccccc2)=C(c2ccccc2)C1(Cl)Cl
[1]
  GI50: 16.7 µM (inactive)
[2]
  GI50: 2.59 µM (inactive)
[3]
  GI50: 5.04 µM (inactive)
[4]
  GI50: 11.7 µM (inactive)
[5]
  GI50: 0.667 µM (active)
[6]
  GI50: 5.19 µM (inactive)
[7]
  GI50: 0.736 µM (active)
[8]
  GI50: 5.21 µM (inactive)
[9]
  GI50: 1.01 µM (active)
[10]
  GI50: 2.12 µM (inactive)
[11]
  GI50: 1.86 µM (inactive)
[12]
  GI50: 2.82 µM (inactive)
[13]
  GI50: 6.65 µM (inactive)
[14]
  GI50: 5.9 µM (inactive)
[15]
  GI50: 1.5 µM (inactive)
[16]
  GI50: 2.62 µM (inactive)
[17]
  GI50: 2.04 µM (inactive)
[18]
  GI50: 4.37 µM (inactive)
[19]
  GI50: 3.67 µM (inactive)
[20]
  GI50: 2.71 µM (inactive)

## O=C1NC(=O)C(c2c[nH]c3cc(Br)ccc23)=C1c1cn(C(c2ccccc2)(c2ccccc2)c2ccccc2)cn1
[1]
  GI50: 23.9 µM (inactive)
[2]
  GI50: 12.3 µM (inactive)
[3]
  GI50: 7.82 µM (inactive)
[4]
  GI50: 21.6 µM (inactive)
[5]
  GI50: 16.2 µM (inactive)
[6]
  GI50: 12.6 µM (inactive)
[7]
  GI50: 13.7 µM (inactive)
[8]
  GI50: 16.8 µM (inactive)
[9]
  GI50: 5.45 µM (inactive)
[10]
  GI50: 13.3 µM (inactive)
[11]
  GI50: 18.2 µM (inactive)
[12]
  GI50: 10.5 µM (inactive)
[13]
  GI50: 9.23 µM (inactive)
[14]
  GI50: 11.1 µM (inactive)
[15]
  GI50: 10.5 µM (inactive)
[16]
  GI50: 22.6 µM (inactive)
[17]
  GI50: 6.64 µM (inactive)
[18]
  GI50: 6.19 µM (inactive)
[19]
  GI50: 26.5 µM (inactive)
[20]
  GI50: 18.5 µM (inactive)

From ChEMBL document CHEMBL1201862, “PubChem BioAssay data set” (2004)
